Laboratory results as given in patent publication US10556900B2, “TrkA kinase inhibitors, compositions and methods thereof” (Merck Sharp & Dohme Corp., priority 2015, dated 2020).

Each compound was assayed against human TrkA receptor (Homo sapiens (Human), UniProt P04629) (assay: TrkA functional activity, DiscoverX PathHunter assay (NGF-stimulated U2OS cells)). Settings: U2OS cells expressing human TrkA-Prolink, Shc1-EA and p75NTR; compound 1 h, then NGF (~80% of maximal response) 3 h; luminescence.
Chain of human TrkA receptor (P04629 33-796): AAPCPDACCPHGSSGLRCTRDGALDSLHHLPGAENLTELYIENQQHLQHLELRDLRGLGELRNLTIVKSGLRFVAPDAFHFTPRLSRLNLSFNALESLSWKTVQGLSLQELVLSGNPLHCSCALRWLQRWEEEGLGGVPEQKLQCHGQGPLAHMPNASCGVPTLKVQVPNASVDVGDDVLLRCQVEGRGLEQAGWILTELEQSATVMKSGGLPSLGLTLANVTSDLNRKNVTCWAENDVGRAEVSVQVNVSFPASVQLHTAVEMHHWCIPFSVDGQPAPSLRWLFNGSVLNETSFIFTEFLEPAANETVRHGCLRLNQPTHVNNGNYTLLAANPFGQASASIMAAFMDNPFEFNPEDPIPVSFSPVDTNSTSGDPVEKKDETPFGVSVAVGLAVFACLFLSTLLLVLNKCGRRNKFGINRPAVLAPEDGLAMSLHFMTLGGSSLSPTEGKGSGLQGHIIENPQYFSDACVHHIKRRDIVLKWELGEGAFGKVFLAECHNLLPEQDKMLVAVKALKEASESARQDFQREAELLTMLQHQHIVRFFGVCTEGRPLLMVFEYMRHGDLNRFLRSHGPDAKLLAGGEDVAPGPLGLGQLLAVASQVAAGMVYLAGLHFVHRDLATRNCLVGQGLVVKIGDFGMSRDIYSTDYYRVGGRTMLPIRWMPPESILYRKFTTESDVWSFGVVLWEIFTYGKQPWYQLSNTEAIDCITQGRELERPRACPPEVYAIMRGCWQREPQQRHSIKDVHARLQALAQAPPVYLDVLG
Type: cell-based
Method: TrkA functional activity was measured using a DiscoverX PathHunter assay. In this assay, U2OS cells express the human TrkA receptor as a fusion with the weakly complementing fragment of B-galactosidase, which DiscoverX calls “Prolink (PK)”; additionally, Shc1 is fused with a larger fragment, which is called “Enzyme Acceptor (EA)”. Activation of the TrkA receptor, upon NGF addition, results in the kinase domain being phosphorylated, resulting in subsequent recruitment of Shc1-EA protein. That recruitment results in an active B-galactosidase enzyme that is detected by addition of a chemiluminescent substrate. The human p75^NTR protein was also expressed as a co-receptor for NGF.
All reagents were purchased from DiscoverX, except for the receptor agonists (NGF, BDNF, NT3) which were purchased from Peprotech. Cells were expanded and frozen into cryovials, and stored in the vapor phase of liquid nitrogen, and thawed immediately before use. Thawed cells were added to a 384-well plate at 7500 cells/well, and allowed to incubate overnight. Compound at various concentrations was added the following morning and allowed to incubate on cells for 1 h. Then, NGF was added at a concentration sufficient to elicit ˜80% of a maximal response and allowed to incubate for 3 h at ambient temperature. DiscoverX PathHunter detection reagent was then added and the plate was further incubated for 1 h in the dark. The plate was then read via luminescence on the Perkin Elmer Envision.
In the case of `CC(O)c1cnc2c(NC(=O)c3cc(-c4ncccn4)c(C(F)(F)F)cc3F)c(-c3ccccc3)ncn12` (racemic) [Compound 71, (R and S)-2-Fluoro-N-(3-(1-hydroxyethyl)-7-phenylimidazo[1,2-c]pyrimidin-8-yl)-5-(pyrimidin-2-yl)-4-(trifluoromethyl)benzamide], the IC50 is reported as 6.6 nM. In the case of `CC(O)c1n[nH]c2c(NC(=O)c3cc(-c4ncccn4)c(C(F)(F)F)cc3F)c(-c3ccccc3)ccc12` (racemic) [Compound 47, (R) and (S)-2-Fluoro-N-(3-(1-hydroxyethyl)-6-phenyl-1H-indazol-7-yl)-5-(pyrimidin-2-yl)-4-(trifluoromethyl)benzamide], the IC50 is reported as 4.5 nM. `CC(O)c1cnc2c(NC(=O)c3cc(-c4ncccn4)c(C(F)(F)F)cc3F)c(-c3ccccc3)ccn12` (single isomer, unassigned) [Compound 10, (R) or (S)-2-Fluoro-N-(3-(1-hydroxyethyl)-7-phenylimidazo[1,2-a]pyridin-8-yl)-5-(pyrimidin-2-yl)-4-(trifluoromethyl)benzamide] gave an IC50 of 1.1 nM. `Cn1ccc(-c2cc(C(=O)Nc3c(-c4ccccc4)ccn4c(C(C)(C)O)cnc34)c(Cl)cc2C(F)(F)F)n1` [Compound 17, 2-chloro-N-[3-(1-hydroxy-1-methylethyl)-7-phenylimidazo[1,2-a]pyridin-8-yl]-5-(1-methyl-1H-pyrazol-3-yl)-4-(trifluoromethyl)benzamide] was tested, and the IC50 was 1.1 nM. `CC(O)c1nc2c(NC(=O)c3ccc(C(F)(F)F)c(-c4ccn(C)n4)c3)c(-c3ccccc3)ccc2s1` (racemic) [Compound 6, (R and S)—N-(2-(1-Hydroxyethyl)-5-phenylbenzo[d]thiazol-4-yl)-3-(1-methyl-1H-pyrazol-3-yl)-4-(trifluoromethyl)benzamide] was tested, and the IC50 was 11 nM. `CC(O)c1cnc2c(NC(=O)c3cc(-c4cc[nH]n4)c(C(F)(F)F)cc3F)c(-c3ccccc3)ccn12` (single isomer, unassigned) [Compound 27, (R) or (S)-2-fluoro-N-[3-(1-hydroxyethyl)-7-phenylimidazo[1,2-a]pyridin-8-yl]-5-(1H-pyrazol-3-yl)-4-(trifluoromethyl)benzamide] was tested, and the IC50 was 3.5 nM. Work on `Cc1ncc2nc(-c3ccccc3)c(NC(=O)c3ccc(C(F)(F)F)c(-c4ccn(C)n4)c3)cn12` [Compound 62, 3-(1-Methyl-1H-pyrazol-3-yl)-N-(6-methyl-2-phenylimidazo[1,5-a]pyrimidin-3-yl)-4-(trifluoromethyl)benzamide] yielded an IC50 of 47 nM. `CCOC(=O)c1cnc2c(NC(=O)c3cc(-c4ccn(C)n4)c(C(F)(F)F)s3)c(-c3ccccc3)ccn12` [Compound 66, Ethyl 8-(4-(1-methyl-1H-pyrazol-3-yl)-5-(trifluoromethyl)thiophene-2-carboxamido)-7-phenylimidazo[1,2-a]pyridine-3-carboxylate] showed an IC50 of 204 nM. For `Cn1ccc(-c2cc(C(=O)Nc3c(-c4ccccc4)ccc4c(C(C)(C)O)cnn34)c(F)cc2C(F)(F)F)n1` [Compound 36, 2-Fluoro-N-(3-(2-hydroxypropan-2-yl)-6-phenylpyrazolo[1,5-a]pyridin-7-yl)-5-(1-methyl-1H-pyrazol-3-yl)-4-(trifluoromethyl)benzamide], the IC50 was 0.4 nM. `CC(C)(O)c1cnc2c(NC(=O)c3cc(-c4ncccn4)c(C(F)(F)F)cc3F)c(-c3ccccc3)ccn12` [Compound 11, 2-Fluoro-N-(3-(2-hydroxypropan-2-yl)-7-phenylimidazo[1,2-a]pyridin-8-yl)-5-(pyrimidin-2-yl)-4-(trifluoromethyl)benzamide] was tested, and the IC50 was 4 nM. `O=C(Nc1c(-c2ccccc2)ccc2c(CO)cnn12)c1cc(-c2ncccn2)c(C(F)(F)F)cc1F` [Compound 41, 2-fluoro-N-[3-(hydroxymethyl)-6-phenylpyrazolo[1,5-a]pyridin-7-yl]-5-pyrimidin-2-yl-4-(trifluoromethyl)benzamide] was tested, and the IC50 was 2.1 nM. `Cc1ccccc1-c1ccn2c(C(N)=O)cnc2c1NC(=O)c1cc(-c2ccn(C)n2)c(C(F)(F)F)cc1F` [Compound 56, 8-(2-Fluoro-5-(1-methyl-1H-pyrazol-3-yl)-4-(trifluoromethyl)benzamido)-7-(o-tolyl)imidazo[1,2-a]pyridine-3-carboxamide] showed an IC50 of 29 nM. With `Cn1ccc(-c2cc(C(=O)Nc3c(-c4ccccc4)ccn4c(CO)cnc34)sc2C(F)(F)F)n1` [Compound 68, N-(3-(Hydroxymethyl)-7-phenylimidazo[1,2-a]pyridin-8-yl)-4-(1-methyl-1H-pyrazol-3-yl)-5-(trifluoromethyl)thiophene-2-carboxamide] the IC50 was 48 nM. In the case of `CC(O)c1cnc2c(NC(=O)c3cc(-c4ccccn4)c(C(F)(F)F)cc3F)c(-c3ccccc3)ccn12` (single isomer, unassigned) [Compound 30, (R) or (S)-2-fluoro-N-[3-(1-hydroxyethyl)-7-phenylimidazo[1,2-a]pyridin-8-yl]-5-pyridin-2-yl-4-(trifluoromethyl)benzamide], the IC50 is reported as 0.74 nM. Compound `Cn1ccc(-c2cc(C(=O)Nc3c(-c4ccccc4)ncn4cnnc34)ccc2C(F)(F)F)n1` [Compound 33, 3-(1-methyl-1H-pyrazol-3-yl)-N-(7-phenyl[1,2,4]triazolo[4,3-c]pyrimidin-8-yl)-4-(trifluoromethyl)benzamide] has an IC50 of 6.3 nM. `Cn1ccc(-c2cc(C(=O)Nc3c(-c4ccccc4)ccn4c(CO)cnc34)ccc2C(F)(F)F)n1` [Compound 13, N-[3-(hydroxymethyl)-7-phenylimidazo[1,2-a]pyridin-8-yl]-3-(1-methyl-1H-pyrazol-3-yl)-4-(trifluoromethyl)benzamide] gave an IC50 of 2.4 nM. `Cn1ccc(-c2cc(C(=O)Nc3c(-c4ccccc4)ccc4c(CO)cnn34)ccc2C(F)(F)F)n1` [Compound 40, N-[3-(hydroxymethyl)-6-phenylpyrazolo[1,5-a]pyridin-7-yl]-3-(1-methyl-1H-pyrazol-3-yl)-4-(trifluoromethyl)benzamide] showed an IC50 of 1.4 nM. Work on `CC(C)(O)c1ncn2c(NC(=O)c3cc(-c4ncccn4)c(C(F)(F)F)cc3F)c(-c3ccccc3)ccc12` [Compound 59] yielded an IC50 of 25 nM. `Cn1ccc(-c2cc(C(=O)Nc3c(-c4ccccc4)ncn4c(CO)cnc34)c(F)cc2C(F)(F)F)n1` [Compound 70, 2-Fluoro-N-(3-(hydroxymethyl)-7-phenylimidazo[1,2-c]pyrimidin-8-yl)-5-(1-methyl-1H-pyrazol-3-yl)-4-(trifluoromethyl)benzamide] gave an IC50 of 1.2 nM. In the case of `O=C(Nc1c(-c2ccccc2)ccn2c(CO)cnc12)c1cc(-c2ccccn2)c(C(F)(F)F)cc1F` [Compound 24, 2-fluoro-N-[3-(hydroxymethyl)-7-phenylimidazo[1,2-a]pyridin-8-yl]-5-pyridin-2-yl-4-(trifluoromethyl)benzamide], the IC50 is reported as 2.5 nM. Work on `[2H]C([2H])(O)c1cnc2c(NC(=O)c3cc(-c4ncccn4)c(C(F)(F)F)cc3F)c(-c3ccccc3)ccn12` [Compound 35, 2-Fluoro-N-(3-(hydroxymethyl-d2)-7-phenylimidazo[r 12-a]pyridin-8-yl)-5-(pyrimidin-2-yl)-4-(trifluoromethyl)benzamide] yielded an IC50 of 4.4 nM.
